Measurements taken from ChEMBL document CHEMBL1201862, “PubChem BioAssay data set” (2004).
Calls of active or inactive are those of the source.

Columns and labels:
[1] = miR-122 activators in hepatoma reporter cells, dose response, cell-based, Huh7 psiCHECK-miR122, Renilla luciferase, cherry-picked (AID 651956); format: functional;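 further: huh7 hepatoma cells stably carrying a psiCHECK-2 miR-122 sensor plasmid; renilla luciferase signal reporting endogenous miR-122 activity after 48 h compound exposure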
[2] = HEK293T cytotoxicity, dose response, cytotoxicity control for miR-122 modulator project, cell-based, activator set, cherry-pick (AID 720690); format: functional;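 further: HEK293T human cells scored for general mammalian cytotoxicity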
[3] = target: Potassium channel subfamily K member 9 (Homo sapiens, UniProt Q9NPC2); assay: TASK3 (KCNK9) channel inhibitors, thallium flux, SAR follow-up, selectivity assay for TASK1 inhibitor project, cell-based, FluxOR thallium flux, concentration-response (AID 652211); format: functional;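 further: potency is for inhibitors of the channel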
Potassium channel subfamily K member 9, sequence (Q9NPC2 whole entry): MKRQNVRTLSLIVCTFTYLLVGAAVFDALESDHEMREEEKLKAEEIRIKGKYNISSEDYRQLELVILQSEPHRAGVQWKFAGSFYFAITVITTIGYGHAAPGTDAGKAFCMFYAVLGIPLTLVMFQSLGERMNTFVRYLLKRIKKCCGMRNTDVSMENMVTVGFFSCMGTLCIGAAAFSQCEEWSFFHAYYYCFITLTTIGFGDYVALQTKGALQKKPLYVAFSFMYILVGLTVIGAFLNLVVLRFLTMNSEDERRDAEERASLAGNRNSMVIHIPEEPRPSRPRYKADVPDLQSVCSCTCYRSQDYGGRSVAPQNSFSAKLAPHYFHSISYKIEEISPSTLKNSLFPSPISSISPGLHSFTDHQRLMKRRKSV

[4] = target: Potassium voltage-gated channel subfamily KQT member 2 (Rattus norvegicus, UniProt O88943); assay: KCNQ2 channel inhibition, SAR follow-up, selectivity assay for TASK1 inhibitor project, cell-based, FluxOR thallium flux, concentration-response (AID 652192); format: functional
Potassium voltage-gated channel subfamily KQT member 2, sequence (O88943 whole entry): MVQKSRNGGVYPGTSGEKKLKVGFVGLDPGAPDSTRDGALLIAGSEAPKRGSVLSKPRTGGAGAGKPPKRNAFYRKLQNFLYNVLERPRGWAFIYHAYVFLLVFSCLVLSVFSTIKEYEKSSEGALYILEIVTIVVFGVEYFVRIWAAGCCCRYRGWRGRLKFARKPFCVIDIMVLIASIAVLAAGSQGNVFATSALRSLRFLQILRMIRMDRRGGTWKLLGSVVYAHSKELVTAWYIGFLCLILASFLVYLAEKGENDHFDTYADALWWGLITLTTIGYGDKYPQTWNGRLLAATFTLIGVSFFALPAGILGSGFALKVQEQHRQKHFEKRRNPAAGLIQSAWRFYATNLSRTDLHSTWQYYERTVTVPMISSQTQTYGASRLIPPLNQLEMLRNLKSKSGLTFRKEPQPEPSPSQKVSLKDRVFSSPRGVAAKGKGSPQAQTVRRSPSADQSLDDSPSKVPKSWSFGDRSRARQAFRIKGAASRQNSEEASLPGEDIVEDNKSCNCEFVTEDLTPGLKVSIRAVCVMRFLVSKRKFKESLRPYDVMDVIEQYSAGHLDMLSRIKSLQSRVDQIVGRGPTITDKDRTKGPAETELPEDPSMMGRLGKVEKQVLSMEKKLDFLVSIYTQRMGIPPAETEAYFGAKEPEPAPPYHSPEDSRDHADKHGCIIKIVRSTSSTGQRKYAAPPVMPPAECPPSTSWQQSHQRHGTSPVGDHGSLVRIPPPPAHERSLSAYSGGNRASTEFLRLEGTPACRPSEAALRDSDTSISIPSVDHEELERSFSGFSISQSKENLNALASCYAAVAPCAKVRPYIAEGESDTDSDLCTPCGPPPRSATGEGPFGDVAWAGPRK

[5] = target: Potassium channel subfamily K member 3 (Homo sapiens, UniProt O14649); assay: TASK1 (KCNK3) potassium channel inhibitors, SAR follow-up, CHO cells, FluxOR thallium flux (AID 652212); format: functional
Potassium channel subfamily K member 3, sequence (O14649 whole entry): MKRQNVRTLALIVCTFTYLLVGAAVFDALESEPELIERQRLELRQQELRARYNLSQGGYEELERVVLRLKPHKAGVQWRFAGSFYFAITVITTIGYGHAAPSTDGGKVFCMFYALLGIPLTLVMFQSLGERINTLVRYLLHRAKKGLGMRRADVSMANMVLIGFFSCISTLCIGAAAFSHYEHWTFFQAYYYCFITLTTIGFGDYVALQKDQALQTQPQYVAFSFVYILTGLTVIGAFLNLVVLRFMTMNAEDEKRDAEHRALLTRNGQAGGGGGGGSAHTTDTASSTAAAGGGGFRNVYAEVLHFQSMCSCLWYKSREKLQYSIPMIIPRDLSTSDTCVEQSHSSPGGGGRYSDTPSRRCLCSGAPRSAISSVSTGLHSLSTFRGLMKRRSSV

[6] = A Cell-Based Confirmatory Screen for Compounds that Inhibit VEEV, TC-83 (7).; format: functional
Galanin receptor type 3 = Galanin receptor type 3 (Homo sapiens, UniProt O60755); assay: Fluorescence-based cell-based primary high throughput dose response assay to identify antagonists of the Galanin Receptor 3 (GalR3).; format: functional
Galanin receptor type 3, sequence (O60755 whole entry): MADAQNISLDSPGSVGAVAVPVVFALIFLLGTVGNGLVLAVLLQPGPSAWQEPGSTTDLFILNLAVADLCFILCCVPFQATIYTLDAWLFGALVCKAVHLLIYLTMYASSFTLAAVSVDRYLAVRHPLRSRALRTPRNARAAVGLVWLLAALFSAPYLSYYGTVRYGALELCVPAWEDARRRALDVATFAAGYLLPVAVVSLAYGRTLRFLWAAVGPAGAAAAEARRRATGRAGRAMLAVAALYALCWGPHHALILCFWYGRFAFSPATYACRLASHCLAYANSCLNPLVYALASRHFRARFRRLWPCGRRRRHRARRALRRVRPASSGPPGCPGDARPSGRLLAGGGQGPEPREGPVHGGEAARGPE

cells [7] = format: functional, cell-based; settings: HEK-CNG
cells [8] = format: functional, cell-based
[9] = target: T1, Trace amine-associated receptor 1 (Homo sapiens, UniProt Q96RJ0); assay: Fluorescence-based cell-based high throughput dose response assay to identify agonists of the human trace amine associated receptor 1 (TAAR1).; format: functional
T1 sequence (Q96RJ0 whole entry): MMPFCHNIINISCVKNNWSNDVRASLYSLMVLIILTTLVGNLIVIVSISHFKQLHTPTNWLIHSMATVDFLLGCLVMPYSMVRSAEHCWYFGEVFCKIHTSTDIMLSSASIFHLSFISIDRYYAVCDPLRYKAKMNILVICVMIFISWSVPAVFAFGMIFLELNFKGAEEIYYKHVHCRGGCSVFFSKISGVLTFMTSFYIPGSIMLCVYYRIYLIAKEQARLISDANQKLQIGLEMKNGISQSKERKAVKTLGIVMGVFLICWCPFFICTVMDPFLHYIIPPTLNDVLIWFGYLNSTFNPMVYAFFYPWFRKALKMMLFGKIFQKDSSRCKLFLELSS

[10] = target: T1, Trace amine-associated receptor 1; assay: Counterscreen for agonists of the human trace amine associated receptor 1 (hTAAR1): Fluorescence-based cell-based high throughput dose response assay to identify hTAAR1 agonist that also desensitize TAAR1 receptor response.; format: functional
cells [11] = format: functional, cell-based; remark: listed apart in the source
[12] = Late stage assay provider results from the probe development effort to identify selective inhibitors of heat shock protein 90 (HSP90): Absorbance-based cell proliferation assay in SKBR3 cells.; format: functional; settings: SK-BR-3
[13] = Late stage assay provider results from the probe development effort to identify selective inhibitors of heat shock protein 90 (HSP90): Absorbance-based cell proliferation assay in MCF7 cells.; format: functional
[14] = target: T2, Replicative DNA helicase DnaB (Mycobacterium tuberculosis, UniProt P9WMR3); assay: DnaB intein splicing inhibitors, dose response, biochemical, cell-free fluorescence (AID 449749); format: functional
T2 sequence (P9WMR3 whole entry): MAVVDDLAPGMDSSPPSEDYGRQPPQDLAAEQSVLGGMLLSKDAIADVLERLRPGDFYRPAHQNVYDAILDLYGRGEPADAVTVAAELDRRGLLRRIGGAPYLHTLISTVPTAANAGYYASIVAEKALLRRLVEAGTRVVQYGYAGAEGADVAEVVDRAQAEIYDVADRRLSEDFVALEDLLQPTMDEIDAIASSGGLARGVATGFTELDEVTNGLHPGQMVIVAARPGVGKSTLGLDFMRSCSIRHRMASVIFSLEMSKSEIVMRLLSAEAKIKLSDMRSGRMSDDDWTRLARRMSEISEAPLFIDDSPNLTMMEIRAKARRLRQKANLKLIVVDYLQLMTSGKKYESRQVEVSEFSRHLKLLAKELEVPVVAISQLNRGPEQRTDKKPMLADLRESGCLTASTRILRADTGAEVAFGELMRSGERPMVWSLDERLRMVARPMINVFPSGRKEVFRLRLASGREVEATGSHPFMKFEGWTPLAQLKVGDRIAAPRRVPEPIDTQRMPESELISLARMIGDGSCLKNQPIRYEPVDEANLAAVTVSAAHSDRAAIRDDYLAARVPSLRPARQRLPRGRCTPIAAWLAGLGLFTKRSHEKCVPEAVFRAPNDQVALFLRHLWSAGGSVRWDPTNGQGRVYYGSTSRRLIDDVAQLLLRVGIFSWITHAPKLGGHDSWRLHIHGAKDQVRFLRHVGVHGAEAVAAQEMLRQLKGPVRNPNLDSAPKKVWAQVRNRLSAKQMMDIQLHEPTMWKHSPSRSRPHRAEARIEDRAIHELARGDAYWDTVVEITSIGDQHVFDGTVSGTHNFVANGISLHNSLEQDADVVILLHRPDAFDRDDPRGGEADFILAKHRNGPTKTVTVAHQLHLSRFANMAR

Protein RecA = target: T3, Protein RecA (Mycobacterium tuberculosis, UniProt P9WHJ3); assay: Fluorescence Cell-Free Homogeneous Dose Retest to Identify Inhibitors of RecA-Intein Splicing Activity. [Related pubchem assays (depositor defined):AID2097, AID2223, AID489010, AID492950]; format: functional
T3 sequence (P9WHJ3 whole entry): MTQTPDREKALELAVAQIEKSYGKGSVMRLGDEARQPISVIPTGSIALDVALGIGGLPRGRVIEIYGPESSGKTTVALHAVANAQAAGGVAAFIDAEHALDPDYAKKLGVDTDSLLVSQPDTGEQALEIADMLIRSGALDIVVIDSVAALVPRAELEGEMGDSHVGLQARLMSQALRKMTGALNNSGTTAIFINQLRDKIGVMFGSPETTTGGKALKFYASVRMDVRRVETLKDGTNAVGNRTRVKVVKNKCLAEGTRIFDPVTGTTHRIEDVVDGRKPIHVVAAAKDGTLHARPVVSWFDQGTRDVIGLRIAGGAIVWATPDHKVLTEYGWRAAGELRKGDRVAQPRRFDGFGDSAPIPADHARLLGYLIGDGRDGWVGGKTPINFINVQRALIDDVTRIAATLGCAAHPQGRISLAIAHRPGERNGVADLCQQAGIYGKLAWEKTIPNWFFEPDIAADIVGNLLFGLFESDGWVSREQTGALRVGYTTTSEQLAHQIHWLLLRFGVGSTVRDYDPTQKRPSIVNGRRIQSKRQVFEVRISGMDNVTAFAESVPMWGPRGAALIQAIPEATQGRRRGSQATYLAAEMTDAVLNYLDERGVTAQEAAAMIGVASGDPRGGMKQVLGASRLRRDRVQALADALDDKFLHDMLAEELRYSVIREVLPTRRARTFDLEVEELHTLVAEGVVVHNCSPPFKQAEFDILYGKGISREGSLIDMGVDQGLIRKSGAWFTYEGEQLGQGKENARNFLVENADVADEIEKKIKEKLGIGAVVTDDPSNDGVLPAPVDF

[15] = target: T4, Sentrin-specific protease 8 (Homo sapiens, UniProt Q96LD8); format: functional
T4 sequence (Q96LD8 whole entry): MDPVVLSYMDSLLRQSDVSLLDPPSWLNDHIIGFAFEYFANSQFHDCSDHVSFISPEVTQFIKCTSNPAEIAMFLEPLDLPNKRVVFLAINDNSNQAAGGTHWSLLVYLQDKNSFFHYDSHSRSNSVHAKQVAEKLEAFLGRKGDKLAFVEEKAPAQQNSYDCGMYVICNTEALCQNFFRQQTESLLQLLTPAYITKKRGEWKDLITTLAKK

[16] = target: T4, Sentrin-specific protease 8; format: functional; remark: listed apart in the source
Caspase-3 = target: T5, Caspase-3 (Homo sapiens, UniProt P42574); assay: Dose-response confirmation of uHTS inhibitor hits of Sentrin-Specific Protease 8 in a Caspase-3 Fluorescence assay.; format: functional
T5 sequence (P42574 whole entry): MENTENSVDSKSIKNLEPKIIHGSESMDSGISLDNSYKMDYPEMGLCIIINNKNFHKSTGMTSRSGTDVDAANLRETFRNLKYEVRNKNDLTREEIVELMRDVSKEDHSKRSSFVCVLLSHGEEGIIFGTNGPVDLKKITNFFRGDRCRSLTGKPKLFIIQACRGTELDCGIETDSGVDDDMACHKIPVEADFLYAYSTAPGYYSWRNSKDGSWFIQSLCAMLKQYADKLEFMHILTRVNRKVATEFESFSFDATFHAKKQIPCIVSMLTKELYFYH

[17] = HEp-2 cell cytotoxicity, dose response, cytotoxicity control for RSV inhibitor project, HTS (AID 2410); format: functional; settings: human respiratory syncytial virus
[18] = target: Endoplasmic reticulum aminopeptidase 1 (Homo sapiens, UniProt Q9NZ08); assay: ERAP1 aminopeptidase inhibitors, dose response, biochemical, cherry-pick, set 2, plate reader (AID 743314)
Endoplasmic reticulum aminopeptidase 1, sequence (Q9NZ08 whole entry): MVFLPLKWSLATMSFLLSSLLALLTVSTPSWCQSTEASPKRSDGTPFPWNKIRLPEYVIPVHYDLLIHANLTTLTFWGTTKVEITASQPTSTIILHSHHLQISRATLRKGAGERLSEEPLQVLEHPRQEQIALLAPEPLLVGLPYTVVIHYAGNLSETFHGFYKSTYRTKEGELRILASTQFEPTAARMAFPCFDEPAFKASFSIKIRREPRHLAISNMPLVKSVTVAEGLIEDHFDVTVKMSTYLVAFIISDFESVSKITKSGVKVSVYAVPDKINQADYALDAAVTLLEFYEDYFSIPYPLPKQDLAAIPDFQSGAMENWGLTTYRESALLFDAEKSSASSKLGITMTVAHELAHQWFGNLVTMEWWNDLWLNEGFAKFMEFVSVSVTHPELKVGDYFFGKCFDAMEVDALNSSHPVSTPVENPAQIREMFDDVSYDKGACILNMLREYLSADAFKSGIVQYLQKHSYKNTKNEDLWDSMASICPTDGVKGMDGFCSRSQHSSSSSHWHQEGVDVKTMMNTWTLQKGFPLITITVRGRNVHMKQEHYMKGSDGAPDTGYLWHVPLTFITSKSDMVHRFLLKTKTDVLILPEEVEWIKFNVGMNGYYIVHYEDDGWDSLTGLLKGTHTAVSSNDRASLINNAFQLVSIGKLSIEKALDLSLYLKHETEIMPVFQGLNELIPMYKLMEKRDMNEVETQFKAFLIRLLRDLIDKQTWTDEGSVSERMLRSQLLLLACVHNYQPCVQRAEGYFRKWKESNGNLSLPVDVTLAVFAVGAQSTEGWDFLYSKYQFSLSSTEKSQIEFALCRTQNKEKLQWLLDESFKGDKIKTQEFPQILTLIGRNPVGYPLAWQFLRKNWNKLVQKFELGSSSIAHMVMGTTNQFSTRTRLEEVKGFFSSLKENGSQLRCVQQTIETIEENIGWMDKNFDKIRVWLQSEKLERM

Beta-lactamase [19] = target: Beta-lactamase (Salmonella choleraesuis (strain SC-B67), UniProt Q5J463); assay: Epi-absorbance-based counterscreen for selective VIM-2 inhibitors: dose response biochemical high throughput screening assay to identify inhibitors of TEM-1 serine-beta-lactamase.
Beta-lactamase (Salmonella choleraesuis (strain SC-B67), UniProt Q5J463), sequence (Q5J463 whole entry): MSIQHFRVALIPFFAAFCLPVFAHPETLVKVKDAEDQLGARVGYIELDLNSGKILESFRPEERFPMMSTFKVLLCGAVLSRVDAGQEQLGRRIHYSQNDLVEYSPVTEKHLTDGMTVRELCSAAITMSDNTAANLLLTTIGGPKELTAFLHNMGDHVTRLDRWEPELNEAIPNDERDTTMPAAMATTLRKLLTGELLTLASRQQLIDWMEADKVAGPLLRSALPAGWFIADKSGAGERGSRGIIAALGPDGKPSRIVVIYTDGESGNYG

Beta-lactamase [20] = target: T6, Beta-lactamase (Pseudomonas aeruginosa, UniProt Q79MP6); assay: IMP-1 metallo-beta-lactamase inhibitors, dose response, selectivity assay for VIM-2 inhibitor project, biochemical, epi-absorbance (AID 1920)
T6 sequence (Q79MP6 whole entry): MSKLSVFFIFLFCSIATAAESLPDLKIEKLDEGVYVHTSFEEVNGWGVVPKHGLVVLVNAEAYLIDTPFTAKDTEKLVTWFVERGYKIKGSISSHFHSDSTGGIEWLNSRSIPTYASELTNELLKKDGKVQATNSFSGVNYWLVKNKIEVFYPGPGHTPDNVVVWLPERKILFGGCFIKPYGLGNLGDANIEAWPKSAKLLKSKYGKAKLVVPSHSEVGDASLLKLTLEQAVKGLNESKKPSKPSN

Estrogen receptor = target: T7, Estrogen receptor (Homo sapiens, UniProt P03372);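 further: potency for inhibiting coactivator peptide recruitment to the receptor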
T7 sequence (P03372 whole entry): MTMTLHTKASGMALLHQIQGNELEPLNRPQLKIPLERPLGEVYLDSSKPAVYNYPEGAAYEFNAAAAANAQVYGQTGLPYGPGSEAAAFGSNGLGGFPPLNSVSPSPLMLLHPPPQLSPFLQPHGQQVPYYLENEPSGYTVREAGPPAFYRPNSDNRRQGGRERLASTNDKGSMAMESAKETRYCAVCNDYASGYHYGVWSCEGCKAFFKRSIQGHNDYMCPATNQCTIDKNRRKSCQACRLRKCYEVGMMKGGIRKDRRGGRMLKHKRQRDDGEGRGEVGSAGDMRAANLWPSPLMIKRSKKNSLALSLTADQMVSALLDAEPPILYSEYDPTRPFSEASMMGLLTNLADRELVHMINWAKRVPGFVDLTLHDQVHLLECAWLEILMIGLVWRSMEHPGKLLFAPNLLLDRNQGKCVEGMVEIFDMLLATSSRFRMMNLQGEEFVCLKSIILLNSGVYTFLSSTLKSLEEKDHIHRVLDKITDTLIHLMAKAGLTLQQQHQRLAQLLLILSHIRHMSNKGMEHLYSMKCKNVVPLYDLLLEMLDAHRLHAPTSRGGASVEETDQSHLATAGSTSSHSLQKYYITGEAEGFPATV

Beta-lactamase [21] = target: T6, Beta-lactamase; assay: […] counterscreen for selective VIM-2 inhibitors: dose response biochemical high throughput screening assay to identify inhibitors of IMP-1 metallo-beta-lactamase.
[22] = target: T8, High affinity choline transporter 1 (Homo sapiens, UniProt Q9GZV3); assay: CHT inhibitors, dose response, cell-based, 5-point CRC, membrane potential dye (AID 504840); format: functional
T8 sequence (Q9GZV3 whole entry): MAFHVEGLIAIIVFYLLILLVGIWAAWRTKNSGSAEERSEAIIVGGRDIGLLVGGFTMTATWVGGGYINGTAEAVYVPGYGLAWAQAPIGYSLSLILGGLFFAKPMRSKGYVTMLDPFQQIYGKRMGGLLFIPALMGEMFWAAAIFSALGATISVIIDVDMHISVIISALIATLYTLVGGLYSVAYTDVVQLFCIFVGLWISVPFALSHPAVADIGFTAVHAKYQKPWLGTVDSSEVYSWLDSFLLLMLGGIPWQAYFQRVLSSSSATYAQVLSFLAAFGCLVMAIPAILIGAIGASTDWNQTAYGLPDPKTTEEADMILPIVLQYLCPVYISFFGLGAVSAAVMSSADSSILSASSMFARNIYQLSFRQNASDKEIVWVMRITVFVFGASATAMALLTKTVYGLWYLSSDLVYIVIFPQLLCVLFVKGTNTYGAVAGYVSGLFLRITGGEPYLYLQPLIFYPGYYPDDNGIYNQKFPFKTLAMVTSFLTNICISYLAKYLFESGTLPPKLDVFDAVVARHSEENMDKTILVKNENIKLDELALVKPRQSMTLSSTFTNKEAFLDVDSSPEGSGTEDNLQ

[23] = target: T8, High affinity choline transporter 1; assay: CHT inhibitors, dose response, cell-based, 10-point CRC, membrane potential dye (AID 588401); format: functional;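 further: membrane potential dye fluorescence of choline-evoked depolarization via CHT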
Major prion protein = Major prion protein (Homo sapiens, UniProt P04156); format: functional, cell-based
cells [24] = assay: cells

C[C@@H]1CCCCO[C@H](CN(C)CC2CCCCC2)[C@H](C)CN([C@@H](C)CO)C(=O)c2cc(NC(=O)Nc3ccc(C(F)(F)F)cc3)ccc2O1
AC50 [1]: 2.85 µM (active) | AC50 [2]: 4.83 µM (active)

COc1cnccc1C(=O)Nc1cccc(NC(=O)c2cccc(C)c2)c1
IC50 [3]: 2.43 µM (active) | IC50 [4]: 7.58 µM (active) | IC50 [5]: 0.18 µM (active)

CN1CCN(C)/C(=N/c2ccc([N+](=O)[O-])cc2C(=O)Nc2ccccc2F)C1
IC50 [6]: 0.15 µM (active)

Cc1cc(Br)cn2c(Cc3ccccc3C(F)(F)F)c(-c3ccco3)nc12
IC50 (Galanin receptor type 3): 14.5 µM (inactive) | EC50 (cells [7]): > 29.9 µM (inactive)

CC(C)[C@H](NC(=O)C1CCCC1)C(=O)N1CCC[C@H]1C(=O)NCCc1ccccc1Cl
IC50 (cells [8]): > 29.9 µM (inactive) | EC50 [9]: 0.897 µM (active) | IC50 [10]: 3.8 µM (active) | EC50 (cells [11]): > 29.9 µM (inactive)

Cc1c(N/C=C2/C=C(Br)C(=O)OC2=O)c(=O)n(-c2ccccc2)n1C
IC50 [12]: 16 µM (inactive) | IC50 [13]: 3 µM (active)

COc1ccc(-c2csc(CCN3N=C(C)CC3=O)n2)cc1
AC50 [14]: 3.27 µM (active) | EC50 (Protein RecA): 1.54 µM (active) | IC50 [15]: 12.1 µM (active) | IC50 [16]: 14.6 µM (active) | IC50 (Caspase-3): 100 µM (inactive)

COc1ccc(-c2cc3ccc(O)cc3oc2=O)cc1
CC50 [17]: 49.4 µM (active) | AC50 [18]: 3.06 µM (active)

Cn1ccnc1SCC(=O)Nc1ccc2nc(SCC(=O)NC3CC3)sc2c1
IC50 (Beta-lactamase [19]): > 59.6 µM (inactive) | IC50 (Beta-lactamase [20]): > 59.6 µM (inactive) | IC50 (Estrogen receptor): 25.7 µM (active) | IC50 (Beta-lactamase [21]): > 59.6 µM (inactive) | IC50 [22]: 4.29 µM (active) | IC50 [23]: 0.843 µM (active)

COc1ccc(/C=C\C(=O)NCc2ccc3c(c2)cc(C)n3C)cc1OC
IC50 (Major prion protein): 40.3 µM (inactive) | IC50 (cells [24]): > 138 µM (inactive)
